Where two headings read alike, the source gives them in different places.
What was measured:
Assay type in all cases: cell-based
[1] = biological target: T1, human TLR8 (Homo sapiens, UniProt Q9NR97); test: TLR8 inhibition reporter assay (HEK-Blue cells, secreted embryonic alkaline phosphatase reporter); conditions: HEK-Blue cells overexpressing human TLR8, stimulated with R848 15.9 μM; read-out: TLR 8 IC50
T1 construct: host or cells: HEK-Blue cells (HEK293-derived reporter line)
T1 sequence (Q9NR97 27-1041): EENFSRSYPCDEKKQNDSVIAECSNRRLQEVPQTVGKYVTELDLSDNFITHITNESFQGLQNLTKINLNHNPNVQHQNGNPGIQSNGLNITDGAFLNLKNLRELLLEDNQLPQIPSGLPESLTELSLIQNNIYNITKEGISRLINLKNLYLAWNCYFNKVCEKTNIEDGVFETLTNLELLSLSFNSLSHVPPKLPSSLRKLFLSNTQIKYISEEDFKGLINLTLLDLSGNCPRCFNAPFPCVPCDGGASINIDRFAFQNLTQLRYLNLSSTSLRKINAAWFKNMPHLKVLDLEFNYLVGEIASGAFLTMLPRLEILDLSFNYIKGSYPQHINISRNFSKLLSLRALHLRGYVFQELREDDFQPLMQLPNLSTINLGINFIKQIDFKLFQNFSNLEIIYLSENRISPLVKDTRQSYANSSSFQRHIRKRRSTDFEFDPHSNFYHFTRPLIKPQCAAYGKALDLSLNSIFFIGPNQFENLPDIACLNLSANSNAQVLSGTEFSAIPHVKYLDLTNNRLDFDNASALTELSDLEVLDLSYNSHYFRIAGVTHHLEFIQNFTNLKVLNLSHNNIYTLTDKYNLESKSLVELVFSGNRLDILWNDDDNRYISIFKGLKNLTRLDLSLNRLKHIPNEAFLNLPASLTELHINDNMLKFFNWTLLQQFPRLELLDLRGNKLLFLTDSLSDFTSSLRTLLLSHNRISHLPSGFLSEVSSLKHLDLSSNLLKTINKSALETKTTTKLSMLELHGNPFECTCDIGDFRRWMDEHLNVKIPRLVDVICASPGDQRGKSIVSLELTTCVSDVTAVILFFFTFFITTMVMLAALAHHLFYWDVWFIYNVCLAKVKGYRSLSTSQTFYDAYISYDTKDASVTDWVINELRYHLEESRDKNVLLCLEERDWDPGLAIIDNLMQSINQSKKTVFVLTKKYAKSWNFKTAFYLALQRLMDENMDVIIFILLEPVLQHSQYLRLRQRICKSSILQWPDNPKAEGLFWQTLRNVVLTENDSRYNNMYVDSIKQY
Method in brief: (§1)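 Steps: seed receptor-specific HEK-Blue cells; add compound, 0.05 nM–50 μM; wait 30 min at room temperature; add final gardiquimod 7.5 μM, R848 15.9 μM or ODN2006 5 nM for TLR7, TLR8 or TLR9; incubate 22 h at 37 °C; detect NF-κB/AP-1-driven SEAP.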

[2] = biological target: T2, human TLR7 (Homo sapiens, UniProt Q9NYK1); test: TLR7 inhibition reporter assay (HEK-Blue cells, secreted embryonic alkaline phosphatase reporter); conditions: HEK-Blue cells overexpressing human TLR7, stimulated with gardiquimod 7.5 μM; read-out: TLR 7 IC50
T2 construct: host or cells: HEK-Blue cells (HEK293-derived reporter line)
T2 sequence (Q9NYK1 27-1049): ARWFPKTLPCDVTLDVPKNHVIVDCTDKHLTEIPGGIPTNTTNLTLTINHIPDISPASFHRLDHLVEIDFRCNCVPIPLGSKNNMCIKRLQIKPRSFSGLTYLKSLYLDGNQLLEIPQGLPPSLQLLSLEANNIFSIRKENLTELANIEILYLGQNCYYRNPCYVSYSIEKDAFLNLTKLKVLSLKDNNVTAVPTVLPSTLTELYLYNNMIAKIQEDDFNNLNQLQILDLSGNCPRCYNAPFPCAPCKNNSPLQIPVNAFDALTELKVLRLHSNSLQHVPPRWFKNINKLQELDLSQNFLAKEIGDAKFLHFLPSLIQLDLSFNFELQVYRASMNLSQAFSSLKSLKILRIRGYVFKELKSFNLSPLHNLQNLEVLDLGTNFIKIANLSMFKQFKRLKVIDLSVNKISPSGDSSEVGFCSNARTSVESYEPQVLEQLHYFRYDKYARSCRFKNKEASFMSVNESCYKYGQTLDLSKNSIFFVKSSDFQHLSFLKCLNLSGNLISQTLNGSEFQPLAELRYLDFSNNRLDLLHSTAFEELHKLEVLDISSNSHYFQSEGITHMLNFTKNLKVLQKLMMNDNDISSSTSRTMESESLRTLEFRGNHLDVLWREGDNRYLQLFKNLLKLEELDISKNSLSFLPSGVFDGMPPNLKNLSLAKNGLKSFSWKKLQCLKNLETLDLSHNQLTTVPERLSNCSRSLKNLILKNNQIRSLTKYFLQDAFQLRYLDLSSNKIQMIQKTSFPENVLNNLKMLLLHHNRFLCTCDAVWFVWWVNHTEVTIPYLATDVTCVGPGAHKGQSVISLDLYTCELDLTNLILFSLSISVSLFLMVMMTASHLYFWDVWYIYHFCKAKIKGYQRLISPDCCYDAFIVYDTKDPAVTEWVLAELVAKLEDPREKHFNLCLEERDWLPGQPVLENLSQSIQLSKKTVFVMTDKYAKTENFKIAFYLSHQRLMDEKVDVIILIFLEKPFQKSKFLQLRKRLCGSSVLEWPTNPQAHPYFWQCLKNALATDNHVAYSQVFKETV
Method in brief: as §1

[3] = biological target: T3, human TLR9 (Homo sapiens, UniProt Q9NR96); test: TLR9 inhibition reporter assay (HEK-Blue cells, secreted embryonic alkaline phosphatase reporter); conditions: HEK-Blue cells overexpressing human TLR9, stimulated with ODN2006 5 nM
T3 construct: host or cells: HEK-Blue cells (HEK293-derived reporter line)
T3 sequence (Q9NR96 26-1032): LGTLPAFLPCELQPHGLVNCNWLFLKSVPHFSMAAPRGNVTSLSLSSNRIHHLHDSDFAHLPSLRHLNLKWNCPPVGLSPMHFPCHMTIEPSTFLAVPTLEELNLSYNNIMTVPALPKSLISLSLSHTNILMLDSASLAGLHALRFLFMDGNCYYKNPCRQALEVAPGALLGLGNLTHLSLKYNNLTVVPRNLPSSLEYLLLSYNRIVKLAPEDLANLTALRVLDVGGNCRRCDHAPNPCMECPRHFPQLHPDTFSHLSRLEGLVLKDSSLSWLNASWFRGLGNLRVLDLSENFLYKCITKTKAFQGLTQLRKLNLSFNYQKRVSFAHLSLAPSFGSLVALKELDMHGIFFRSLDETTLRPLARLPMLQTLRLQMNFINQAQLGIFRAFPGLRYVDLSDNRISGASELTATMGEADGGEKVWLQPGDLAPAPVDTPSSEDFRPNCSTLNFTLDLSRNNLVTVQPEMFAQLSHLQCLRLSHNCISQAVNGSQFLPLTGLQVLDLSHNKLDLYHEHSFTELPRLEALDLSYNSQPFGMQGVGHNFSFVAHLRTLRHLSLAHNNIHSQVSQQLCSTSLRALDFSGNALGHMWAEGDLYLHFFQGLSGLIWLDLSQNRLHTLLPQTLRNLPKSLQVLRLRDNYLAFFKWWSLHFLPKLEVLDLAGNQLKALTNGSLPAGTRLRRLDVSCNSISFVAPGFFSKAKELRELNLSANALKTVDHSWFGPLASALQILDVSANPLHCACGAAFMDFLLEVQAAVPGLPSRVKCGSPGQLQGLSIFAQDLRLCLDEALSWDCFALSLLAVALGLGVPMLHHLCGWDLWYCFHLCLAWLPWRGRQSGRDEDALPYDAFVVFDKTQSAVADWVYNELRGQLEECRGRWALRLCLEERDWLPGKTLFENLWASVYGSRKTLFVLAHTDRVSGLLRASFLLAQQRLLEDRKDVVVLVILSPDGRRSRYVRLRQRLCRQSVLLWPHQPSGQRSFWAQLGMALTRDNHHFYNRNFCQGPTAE
Method in brief: as §1

[4] = 22 hour incubation, reporter readout

Row | SMILES | IC50 [1] | IC50 [2] | IC50 [3, 4] | IC50 ([3]; read-out: TLR 9 IC50)
1 | Cc1cc(C2CCN(C3CCN(CC(C)C)CC3)CC2)cc2[nH]c(-c3ccc(S(C)(=O)=O)cc3)nc12 [Example 58, 6-(1′-isobutyl-[1,4′-bipiperidin]-4-yl)-4-methyl-2-(4-(methylsulfonyl)phenyl)-1H-benzo[d]imidazole tris(2,2,2-trifluoroacetate)] | > 50000 nM | 3100 nM | 47 nM | 47 nM
2 | Cc1cc(C2CCN(C3CCN(CC(C)C)CC3)CC2)cc2[nH]c(-c3ccnc4ccccc34)nc12 [Example 59, 4-(6-(1′-isobutyl-[1,4′-bipiperidin]-4-yl)-4-methyl-1H-benzo[d]imidazol-2-yl)quinoline] | > 50000 nM | 3800 nM | 100 nM | 100 nM
3 | Cc1cc(-c2nc3c(C)cc(C4CCN(C5CCN(CC(C)C)CC5)CC4)cc3[nH]2)cc(C)n1 [Example 60, 2-(2,6-dimethylpyridin-4-yl)-6-(1′-isobutyl-[1,4′-bipiperidin]-4-yl)-4-methyl-1H-benzo[d]imidazole] | > 50000 nM | 1500 nM | 45 nM | 45 nM
4 | Cc1cc(C2CCN(C3CCN(CC(C)C)CC3)CC2)cc2[nH]c(-c3ccc4c(c3)OCCO4)nc12 [Example 62, 2-(2,3-dihydrobenzo[b][1,4]dioxin-6-yl)-6-(1′-isobutyl-[1,4′-bipiperidin]-4-yl)-4-methyl-1H-benzo[d]imidazole] | > 50000 nM | 740 nM | 350 nM | 345 nM
5 | Cc1cc(-c2ccc(N3CCN(C(C)C)CC3)cc2)cc2c1nc(-c1ccc(S(C)(=O)=O)cc1)n2C [Example 86, 6-(4-(4-isopropylpiperazin-1-yl)phenyl)-1,4-dimethyl-2-(4-(methylsulfonyl)phenyl)-1H-benzo[d]imidazole] | > 50000 nM | 5200 nM | 300 nM | 
6 | CC(C)N1CCC(N2CCC(c3ccc4nc(-c5ccc(S(C)(=O)=O)cc5)[nH]c4c3F)CC2)CC1 [Example 87, 7-fluoro-6-(1′-isopropyl-[1,4′-bipiperidin]-4-yl)-2-(4-(methylsulfonyl)phenyl)-1H-benzo[d]imidazole] | > 50000 nM | > 50000 nM | 950 nM | 
7 | CC(C)N1CCC(N2CCC(c3ccc4c(nc(-c5ccc(S(C)(=O)=O)cc5)n4C)c3F)CC2)CC1 [Example 88, 4-fluoro-5-(1′-isopropyl-[1,4′-bipiperidin]-4-yl)-1-methyl-2-(4-(methylsulfonyl)phenyl)-1H-benzo[d]imidazole] | > 50000 nM | > 50000 nM | 360 nM | 363 nM

The next lines start with the values.

Row | IC50 [1] | IC50 [2] | IC50 [3, 4] | IC50 ([3]; read-out: TLR 9 IC50) | SMILES
8 | > 50000 nM | 24000 nM | 420 nM | 421 nM | Cc1cc(C2CCN(C3CCN(C4CC4)CC3)CC2)cc2c1nc(-c1ccc(S(C)(=O)=O)cc1)n2C [Example 53, 6-(1′-cyclopropyl-[1,4′-bipiperidin]-4-yl)-1,4-dimethyl-2-(4-(methylsulfonyl)phenyl)-1H-benzo[d]imidazole]
9 | > 50000 nM | 7700 nM | 130 nM | 131 nM | COc1ccc(-c2nc3c(C)cc(C4CCN(C5CCN(CC(C)C)CC5)CC4)cc3n2C)cc1F [Example 54, 2-(3-fluoro-4-methoxyphenyl)-6-(1′-isobutyl-[1,4′-bipiperidin]-4-yl)-1,4-dimethyl-1H-benzo[d]imidazole]
10 | > 50000 nM | 9300 nM | 140 nM | 140 nM | COc1ccc(-c2nc3c(C)cc(C4CCN(C5CCN(C6CC6)CC5)CC4)cc3n2C)cc1F [Example 55, 6-(1′-cyclopropyl-[1,4′-bipiperidin]-4-yl)-2-(3-fluoro-4-methoxyphenyl)-1,4-dimethyl-1H-benzo[d]imidazole]
11 | > 50000 nM | 3200 nM | 50 nM | 50 nM | COc1ccc(-c2nc3c(C)cc(C4CCN(C5CCN(CC(C)C)CC5)CC4)cc3[nH]2)cc1F [Example 56, 2-(3-fluoro-4-methoxyphenyl)-6-(1′-isobutyl-[1,4′-bipiperidin]-4-yl)-4-methyl-1H-benzo[d]imidazole]
12 | > 50000 nM | 16000 nM | 170 nM | 171 nM | COc1ccc(-c2nc3c(C)cc(C4CCN(C5CCN(C6CC6)CC5)CC4)cc3[nH]2)cc1F [Example 57, 6-(1′-cyclopropyl-[1,4′-bipiperidin]-4-yl)-2-(3-fluoro-4-methoxyphenyl)-4-methyl-1H-benzo[d]imidazole]
13 | > 50000 nM | 19400 nM | 100 nM | 104 nM | CC(C)N1CCC(N2CCC(c3cc(F)c4c(c3)nc(-c3ccc(S(C)(=O)=O)cc3)n4C)CC2)CC1 [Example 91, 7-fluoro-5-(1′-isopropyl-[1,4′-bipiperidin]-4-yl)-1-methyl-2-(4-(methylsulfonyl)phenyl)-1H-benzo[d]imidazole]

Reference: US12492188B2, “1H-benzo[D]imidazole derivatives as TLR9 inhibitors for the treatment of fibrosis” (BRISTOL-MYERS SQUIBB COMPANY, priority 2020, dated 2025)
